# Measured values: patent US20240116946A1 (Gilead Sciences, Inc., priority 2022, published 2024)
# Where two headings read alike, the source gives them in different places.
# Experiments:
# [1] = tested on: SARS-CoV-2-NLuc; test: microbe, parasite or virus in culture; format: cell-based, SARS Coronavirus 2
# [2] = biological target: recombinant SARS-CoV-2 Main protease (Mpro) (Severe acute respiratory syndrome coronavirus 2 (2019-nCoV) (SARS-CoV-2), UniProt P0DTD1); test: Cov Mpro Biochemical IC50 Assay; conditions: recombinant SARS-CoV-2 Mpro 7.5 nM, fluorogenic peptide substrate 40 μM; read-out: MPro IC50
# [3] = Severe acute respiratory syndrome coronavirus, 48 h, read-out: MPro EC50
# [4] = Severe acute respiratory syndrome coronavirus, 48 h; read-out: MPro EC50
Compound,"EC50 [1, 3]",IC50 [2],"EC50 [1, 4]"
"COc1cc(-c2cc3c(s2)c(=O)n(-c2cncc4nn(C)c(C)c24)c(=O)n3CCC#N)c(Cl)cc1F [Example 926, 3-(6-(2-chloro-4-fluoro-5-methoxyphenyl)-3-(2,3-dimethyl-2H-pyrazolo[3,4-c]pyridin-4-yl)-2,4-dioxo-3,4-dihydrothieno[3,2-d]pyrimidin-1(2H)-yl)propanenitrile]",8.89 nM,6.74 nM,–
"COc1cc(-c2cc3c(s2)c(=O)n(-c2cncc(Cl)c2C)c(=O)n3CCC#N)c(Cl)cc1F [Example 927, 3-[6-(2-chloro-4-fluoro-5-methoxy-phenyl)-3-(5-chloro-4-methyl-3-pyridyl)-2,4-dioxo-thieno[3,2-d]pyrimidin-1-yl]propanenitrile]",6.88 nM,7.02 nM,–
COc1cc(-c2cc3c(s2)c(=O)n(-c2cncc(Cl)c2Cl)c(=O)n3CCC#N)c(Cl)cc1F [Example 928],16.2 nM,12.2 nM,–
COc1cc(-c2cc3c(s2)c(=O)n(-c2nncc4ccccc24)c(=O)n3CCC#N)c(Cl)cc1F [Example 929],2.76 nM,5.72 nM,–
Cc1noc(C)c1-c1cc2c(s1)c(=O)n(-c1cncc3cnn(C)c13)c(=O)n2CCC#N [Example 930],> 1000 nM,541 nM,–
COc1cc(-c2cc3c(s2)c(=O)n(-c2cc(C)cnn2)c(=O)n3CCC#N)c(Cl)cc1F [Example 931],5.48 nM,2.53 nM,–
COc1cc(-c2cc3c(s2)c(=O)n(-c2cncc(C)c2C)c(=O)n3CCC#N)c(Cl)cc1F [Example 932],2.42 nM,5.33 nM,–
Cn1ncc2cncc(-n3c(=O)c4sc(-c5c(Cl)cccc5-c5cncc(C#N)c5)cc4n(CCC#N)c3=O)c21 [Example 934],49 nM,8.3 nM,–
N#CCCn1c(=O)n(-c2cncc3ccccc23)c(=O)c2sc(-c3c(Cl)cccc3-c3cncc(C#N)c3)cc21 [Example 935],24.6 nM,14.3 nM,–
"COc1cc(-c2cc3c(s2)c(=O)n(-c2cncc4nnn(C)c24)c(=O)n3CCC#N)c(Cl)cc1F [Example 936, 3-(6-(2-chloro-4-fluoro-5-methoxyphenyl)-3-(1-methyl-1H-[1,2,3]triazolo[4,5-c]pyridin-7-yl)-2,4-dioxo-3,4-dihydrothieno[3,2-d]pyrimidin-1(2H)-yl)propanenitrile]",6.65 nM,5.46 nM,–
COc1cc(-c2cc3c(s2)c(=O)n(-c2cncc4c2n(C)c(=O)n4C)c(=O)n3CCC#N)c(Cl)cc1F [Example 937],11.4 nM,8.42 nM,–
N#CCCn1c(=O)n(-c2cncc3nnn(C4CC4)c23)c(=O)c2sc(-c3ccccc3Cl)cc21 [Example 938],77 nM,17.6 nM,–
COc1cc(-c2cc3c(s2)c(=O)n(-c2cncc4nnn(C5CC5)c24)c(=O)n3CCC#N)c(Cl)cc1F [Example 939],30.3 nM,11 nM,–
CCn1c(C)nc2cncc(-n3c(=O)c4sc(-c5cc(OC)c(F)cc5Cl)cc4n(CCC#N)c3=O)c21 [Example 940],23.6 nM,5.28 nM,–
COc1cc(-c2cc3c(s2)c(=O)n(-c2cncc4nc(C)sc24)c(=O)n3CCC#N)c(Cl)cc1F [Example 941],40.1 nM,7.53 nM,–
COc1cnc(Cl)c(-c2cc3c(s2)c(=O)n(-c2cncc4ccccc24)c(=O)n3CCC#N)c1 [Example 942],13.2 nM,12 nM,–
COc1cc(-c2cc3c(s2)c(=O)n(-c2cncc4cccc(F)c24)c(=O)n3CCC#N)c(C#N)cc1F [Example 943],10 nM,10.3 nM,–
COc1cc(-c2cc3c(s2)c(=O)n(-c2cncc(C)c2Cl)c(=O)n3CCC#N)c(Cl)cc1F [Example 944],8.22 nM,6.67 nM,–
COc1cc(-c2cc3c(s2)c(=O)n(-c2cncc4ccc(F)cc24)c(=O)n3CCC#N)c(Cl)cc1F [Example 945],8.65 nM,8 nM,–
COc1cc(-c2cc3c(s2)c(=O)n(-c2cncc4ccc(Cl)cc24)c(=O)n3CCC#N)c(Cl)cc1F [Example 946],12.9 nM,6.82 nM,–
COc1cc(-c2cc3c(s2)c(=O)n(-c2cncc4ccc(C#CC(C)(C)O)cc24)c(=O)n3CCC#N)c(Cl)cc1F [Example 947],14.2 nM,7.28 nM,–
N#CCCn1c(=O)n(-c2cncc3ccc(F)cc23)c(=O)c2sc(-c3ccc(F)cc3Cl)cc21 [Example 948],12.1 nM,12.5 nM,–

Compound,"EC50 [1, 3]",IC50 [2],"EC50 [1, 4]"
COc1cc(-c2ccc3c(=O)n(-c4cncc5ccccc45)c(=O)n(CCC#N)c3c2)c(Cl)cc1F [Example 949],757 nM,147 nM,–
COc1cc(-c2cc3c(s2)c(=O)n(-c2cncc4c(F)cccc24)c(=O)n3CCC#N)c(Cl)cc1F [Example 950],11.8 nM,4.5 nM,–
COc1cc(-c2cc3c(s2)c(=O)n(-c2cncc4cc(F)ccc24)c(=O)n3CCC#N)c(Cl)cc1F [Example 951],5.38 nM,9.45 nM,–
COc1cc(-c2cc3c(s2)c(=O)n(-c2cncc4ncc(C)n24)c(=O)n3CCC#N)c(Cl)cc1F [Example 952],16.2 nM,10.9 nM,–
COc1cc(-c2cc3c(s2)c(=O)n(-c2cncc(OC4CC4)c2)c(=O)n3CCC#N)c(Cl)cc1F [Example 953],36.3 nM,8.28 nM,–
COc1cc(-c2cc3c(s2)c(=O)n(-c2cncc4nc(C(F)F)n(C)c24)c(=O)n3CCC#N)c(Cl)cc1F [Example 954],26 nM,14.5 nM,–
"COc1cc(-c2cc3[nH]c(=O)n(-c4cncc5cnn(C6CC6)c45)c(=O)c3s2)c(Cl)cc1F [Example 975, 6-(2-chloro-4-fluoro-5-methoxy-phenyl)-3-(1-cyclopropylpyrazolo[4,3-c]pyridin-7-yl)-1H-thieno[3,2-d]pyrimidine-2,4-dione]",10.3 nM,6.33 nM,–
"COc1cc(-c2cc3[nH]c(=O)n(-c4cncc5ccn(C)c(=O)c45)c(=O)c3s2)c(Cl)cc1F [Example 976, 6-(2-chloro-4-fluoro-5-methoxy-phenyl)-3-(6-methyl-5-oxo-2,6-naphthyridin-4-yl)-1H-thieno[3,2-d]pyrimidine-2,4-dione]",15.4 nM,8.07 nM,–
COc1cc(-c2cc3[nH]c(=O)n(-c4cncc5c(C#N)nn(C)c45)c(=O)c3s2)c(Cl)cc1F [Example 977],101 nM,21.2 nM,–
COc1cc(-c2cc3[nH]c(=O)n(-c4cncc5nccn45)c(=O)c3s2)c(Cl)cc1F [Example 978],–,33.4 nM,369 nM
"COc1cc(-c2cc3c(s2)c(=O)n(-c2cncc4c(C)nn(C)c24)c(=O)n3CCC#N)c(Cl)cc1F [Example 979, 3-(6-(2-chloro-4-fluoro-5-methoxyphenyl)-3-(1,3-dimethyl-1H-pyrazolo[4,3-c]pyridin-7-yl)-2,4-dioxo-3,4-dihydrothieno[3,2-d]pyrimidin-1(2H)-yl)propanenitrile]",3.07 nM,3.71 nM,–
COc1cc(-c2cc3c(s2)c(=O)n(-c2cncc4cnc(C)n24)c(=O)n3CCC#N)c(Cl)cc1F [Example 980],10.4 nM,7.64 nM,–
COc1cc(-c2cc3c(s2)c(=O)n(-c2cncc(C)c2)c(=O)n3CCC#N)c(Cl)cc1F [Example 981],1.39 nM,1.38 nM,–
COc1cc(-c2cc3c(s2)c(=O)n(-c2cccnc2)c(=O)n3CCC#N)c(Cl)cc1F [Example 982],7.89 nM,4.12 nM,–
COc1cc(-c2cc3c(s2)c(=O)n(-c2cncnc2)c(=O)n3CCC#N)c(Cl)cc1F [Example 983],23.1 nM,6.05 nM,–
Cc1cncc(-n2c(=O)c3sc(-c4ccccc4Cl)cc3n(CCC#N)c2=O)c1 [Example 984],–,3.12 nM,3.69 nM
COc1cc(-c2cc3c(s2)c(=O)n(-c2cncc(Cl)c2)c(=O)n3CCC#N)c(Cl)cc1F [Example 985],6.7 nM,2.11 nM,–
COc1cc(-c2cc3c(s2)c(=O)n(-c2cncc(F)c2)c(=O)n3CCC#N)c(Cl)cc1F [Example 986],4.39 nM,2.37 nM,–
"COc1cc(-c2cc3c(s2)c(=O)n(-c2cnccc2C)c(=O)n3CCC#N)c(Cl)cc1F [Example 987, 3-[6-(2-chloro-4-fluoro-5-methoxy-phenyl)-3-(4-methyl-3-pyridyl)-2,4-dioxo-thieno[3,2-d]pyrimidin-1-yl]propanenitrile]",5.97 nM,5.68 nM,–
COc1cc(-c2cc3c(s2)c(=O)n(-c2cnnc(C)c2)c(=O)n3CCC#N)c(Cl)cc1F [Example 988],259 nM,63.4 nM,–
COc1cc(-c2cc3c(s2)c(=O)n(-c2cccnn2)c(=O)n3CCC#N)c(Cl)cc1F [Example 989],19.6 nM,7.31 nM,–
COc1cc(-c2cc3c(s2)c(=O)n(-c2cncc4nc(C)n(C5CC5)c24)c(=O)n3CCC#N)c(Cl)cc1F [Example 990],14.1 nM,4.1 nM,–
